Test results from US7423054B2, “Therapeutic pyrazolo[3,4-b]pyridines and indazoles” (Warner Lambert Company LLC, priority 2004, dated 2008).
Where a name gives a salt, the structure may show the parent alone. Read-outs that look alike come from different tables or passages of the source.

Columns and labels:
[1] = system: capsaicin-induced mechanical allodynia; test: Rat model of capsaicin-induced mechanical allodynia (paw withdrawal threshold, Von Frey); assay type: in vivo; conditions: for inhibition in vivo at 10 mg/kg: Rattus norvegicus, po, 2 h, read-out: % inhibition +/− SEM
Method: In certain embodiments, the compounds of formula I may be assayed for their ability to alleviate capsaicin-induced mechanical allodynia in a rat (e.g., Sluka, K A, (2002) J of Neuroscience, 22(13): 5687-5693). For example, a rat model of capsaicin-induced mechanical allodynia) can be carried out as follows:
On day 0, male Sprague-Dawley rats (˜150 g) in the dark cycle are placed in suspended wire-bottom cages and allowed to acclimate for 0.5 h in a darkened, quiet room. The day 0 paw withdrawal threshold (PWT) is determined on the left hind paw by Von Frey hair assessment using the Dixon up and down method. After assessment, the plantar muscle of the right hind paw is injected with 100 μl capsaicin (0.25% in 10% ethanol, 10% Tween 80, in sterile saline). On day 6 the PWT of the left hindpaw (contralateral from injection site) is determined for each animal. Animals from the day 6 prereads with PWT≦11.7 g are considered allodynic responders and are regrouped so that each cage had similar mean PWT values. On day 7, responders are dosed (e.g., orally, intraperitoneally, and subcutaneously, etc.) with 10 ml/kg vehicle (0.5% HPMC(hydroxy-propylmethylcellulose)/0.2% Tween™ 80), or vehicle plus compound. The contralateral PWT values are determined at 2 hours (or at about the time corresponding to the estimated Cmax) after the single dose, with the investigator blinded to the dosing scheme. Those of skill in the art can determine the appropriate time to determine the contralateral PWT value (e.g., 1 hour, 2 hours, etc.).
For each animal, the day 6 PWT value is subtracted from the 2 hour PWT value to give a delta PWT value that represents the change in PWT due to the 2 hour drug treatment. In addition, the day 6 PWT is subtracted from the day 0 PWT to give the baseline window of allodynia present in each animal. To determine % inhibition of allodynia of each animal normalized for vehicle controls, the following formula is used: % Inhibition of Allodynia=100×(Delta PWT(drug)−mean Delta PWT(vehicle))/(Baseline−mean Delta PWT(vehicle)). Pharmaceutically Acceptable Salts and Solvates
Compounds of the present invention may be assayed for their ability to alleviate capsaicin-induced mechanical allodynia in a rat model (e.g., Sluka (2002) J of Neuroscience, 22(13)5687-5693). For example, a rat model of capsaicin-induced mechanical allodynia was carried out as follows:
On day 0, male Sprague-Dawley rats (˜150 g) in the dark cycle were placed in suspended wire-bottom cages and allowed to acclimate for 0.5 hour in a darkened, quiet room. The day 0 paw withdrawal threshold (PWT) was determined on the left hind paw by Von Frey hair assessment using the Dixon up and down method. After assessment, the plantar muscle of the right hind paw was injected with 100 μl capsaicin (0.25% (w/v) in 10% ethanol, 10% Tween 80, in sterile saline). On day 6 the PWT of the left hindpaw (contralateral from injection site) was determined for each animal. Animals from the day 6 prereads with PWT≦11.7 g were considered allodynic responders and were regrouped so that each cage had similar mean PWT values.
On day 7, responders were dosed subcutaneously with 30 mg of the compound of Example 7/kg body weight, 10 mg of the compound of the compound of Example 48/kg body weight, or with vehicle alone. The vehicle was phosphate buffered saline containing 2% Cremophor®) EL (BASF).
For the animals dosed with the compound of Example 7, the contralateral PWT values were determined at 2 hour after the single dose, with the investigator blinded to the dosing scheme.
For each animal, the day 6 PWT value was subtracted from the 2 hour PWT value for the 10 mg/kg doses to give a delta PWT value that represents the change in PWT due to the […] drug treatment. In addition, the day 6 PWT was subtracted from the day 0 PWT to give the baseline window of allodynia present in each animal. […]

[2] = target: T1, human serotonin transporter (hSERT) (Homo sapiens, UniProt P31645); test: hSERT receptor binding ([125I]-RTI-55 displacement, membranes of transfected HEK-293 cells); conditions: HEK-293 membranes, Ki from IC50 by Cheng-Prusoff, read-out: SERT Ki
T1 construct: expressed in transfected cells; host or cells: HEK-293 cells (membrane preparation)
T1 sequence (P31645 whole entry): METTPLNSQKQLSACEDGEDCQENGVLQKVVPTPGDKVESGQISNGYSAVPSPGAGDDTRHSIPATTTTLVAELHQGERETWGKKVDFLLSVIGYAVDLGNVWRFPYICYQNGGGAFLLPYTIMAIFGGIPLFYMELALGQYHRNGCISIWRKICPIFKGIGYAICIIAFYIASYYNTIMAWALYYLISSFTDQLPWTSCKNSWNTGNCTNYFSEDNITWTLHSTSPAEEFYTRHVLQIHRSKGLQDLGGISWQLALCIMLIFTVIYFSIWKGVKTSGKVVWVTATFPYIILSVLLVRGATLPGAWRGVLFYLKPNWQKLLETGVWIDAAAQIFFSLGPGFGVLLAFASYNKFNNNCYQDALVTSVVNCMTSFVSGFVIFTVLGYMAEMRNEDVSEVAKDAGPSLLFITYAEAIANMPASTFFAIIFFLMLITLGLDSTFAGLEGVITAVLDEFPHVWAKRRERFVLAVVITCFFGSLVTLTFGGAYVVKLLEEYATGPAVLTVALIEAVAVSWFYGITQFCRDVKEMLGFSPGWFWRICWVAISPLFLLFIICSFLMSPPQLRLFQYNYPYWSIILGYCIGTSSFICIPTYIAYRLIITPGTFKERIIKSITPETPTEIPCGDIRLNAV
Summary of the method: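 Membranes from HEK-293 cells expressing human SERT were incubated 90 min at room temperature in Krebs-HEPES (pH 7.4) with 50 pM [125I]-RTI-55 and compound (10^-12 to 10^-5 M), in duplicate. Nonspecific binding was defined with 10 μM citalopram. Ki from IC50 by Cheng-Prusoff.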

[3] = target: T2, human norepinephrine transporter (hNET) (Homo sapiens, UniProt P23975); test: hNET receptor binding ([125I]-RTI-55 displacement, membranes of transfected HEK-293 cells); conditions: HEK-293 membranes, Ki from IC50 by Cheng-Prusoff, read-out: NET Ki
T2 construct: expressed in transfected cells; host or cells: HEK-293 cells (membrane preparation)
T2 sequence (P23975 whole entry): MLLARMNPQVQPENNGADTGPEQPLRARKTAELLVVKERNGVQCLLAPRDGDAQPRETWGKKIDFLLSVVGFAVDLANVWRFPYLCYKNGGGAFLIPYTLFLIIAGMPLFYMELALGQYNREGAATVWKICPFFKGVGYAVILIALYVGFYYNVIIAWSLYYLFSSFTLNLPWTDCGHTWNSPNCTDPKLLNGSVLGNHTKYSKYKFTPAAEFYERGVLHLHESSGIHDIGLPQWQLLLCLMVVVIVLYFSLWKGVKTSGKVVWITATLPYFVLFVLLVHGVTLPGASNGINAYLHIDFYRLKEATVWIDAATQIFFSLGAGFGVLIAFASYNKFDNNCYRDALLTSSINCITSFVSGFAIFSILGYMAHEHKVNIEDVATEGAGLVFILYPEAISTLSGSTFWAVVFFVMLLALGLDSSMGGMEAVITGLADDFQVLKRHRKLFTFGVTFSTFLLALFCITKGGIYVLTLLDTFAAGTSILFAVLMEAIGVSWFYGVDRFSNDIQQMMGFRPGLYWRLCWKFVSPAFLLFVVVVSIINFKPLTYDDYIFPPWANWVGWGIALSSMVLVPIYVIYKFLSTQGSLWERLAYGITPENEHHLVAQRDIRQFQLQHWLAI
Summary of the method: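 Membranes from HEK-293 cells expressing human NET were incubated 90 min at room temperature with 50 pM [125I]-RTI-55 and compound (10^−5 to 10^−12 M) in Krebs-HEPES buffer, pH 7.4. Bound radioligand was counted after filtration, with nonspecific binding defined by 10 μM desipramine. IC50 was converted to Ki by Cheng-Prusoff.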

[4] = male Sprague-Dawley rats, oral single dose 10 mg/kg, contralateral PWT at 2 hours after dose, mean of eight animals

| Compound | % Inhibition of Allodynia +/− SEM ([1]; male Sprague-Dawley rats, subcutaneous single dose 10 mg/kg, contralateral PWT at 1 hour after dose, mean of eight animals) | Ki [2] | Ki [3] | inhibition in vivo at 10 mg/kg [1] | inhibition in vivo at 10 mg/kg [1, 4] | % Inhibition of Allodynia +/− SEM ([1]; male Sprague-Dawley rats, subcutaneous single dose 30 mg/kg, contralateral PWT at 2 hour after dose, mean of eight animals) |
| --- | --- | --- | --- | --- | --- | --- |
| Fc1ccc(-n2nc(OC[C@@H]3CNCCO3)c3cc(F)ccc32)c(F)c1.O=C(O)/C=C\C(=O)O [Example 48, (S)-(+)-1-(2,4-Difluorophenyl)-5-fluoro-3-(morpholin-2-ylmethoxy)-1H-indazole maleate] | 74.9% +/− 14.8 | 298 nM | 10.2 nM | – | – | – |
| Fc1ccccc1-n1nc(OC2CCNCC2)c2ccccc21 [Example 1, 1-(2-Fluorophenyl)-3-(piperidin-4-yloxy)-1H-indazole hydrochloride] | – | 51.1 nM | 3.14 nM | 67.7% | – | – |
| Fc1ccc(F)c(-n2nc(OC[C@H]3CCNC3)c3ccccc32)c1 [Example 32, (S)-1-(2,5-Difluoro-phenyl)-3-(pyrrolidin-3-ylmethoxy)-1H-indazole hydrochloride] | – | 33.6 nM | 3.41 nM | – | 60.7% | – |
| Fc1ccc2c(c1)c(OC[C@H]1CCCNC1)nn2-c1ccccc1F [Example 45, (S)-(−)-5-Fluoro-1-(2-fluorophenyl)-3-(piperidin-3-ylmethoxy)-1H-indazole maleate] | – | 47.5 nM | 3.2 nM | – | 46.2% | – |
| Fc1ccc2c(c1)c(OCC1CCCNC1)nn2-c1ccccc1F (racemic) [Example 57, (±)-5-Fluoro-1-(2-fluoro-phenyl)-3-(piperidin-3-ylmethoxy)-1H-indazole hydrochloride] | – | 52.2 nM | 18.1 nM | – | 26% | – |
| Fc1ccc(F)c(-n2nc(OC3CCNCC3)c3ccccc32)c1 [Example 27, 1-(2,5-Difluoro-phenyl)-3-(piperidin-4-yloxy)-1H-indazole hydrochloride] | – | 42.3 nM | 6.34 nM | – | 27% | – |
| Fc1ccc2c(c1)c(OC1CCNCC1)nn2-c1ccccc1F [Example 51, 5-Fluoro-1-(2-fluoro-phenyl)-3-(piperidin-4-yloxy)-1H-indazole hydrochloride] | – | 53.7 nM | 11.9 nM | – | 26% | – |
| Fc1ccc(F)c(-n2nc(OC[C@@H]3CCNC3)c3ccccc32)c1 [Example 30, (R)-1-(2,5-Difluoro-phenyl)-3-(pyrrolidin-3-ylmethoxy)-1H-indazole hydrochloride] | – | 64.6 nM | 4.44 nM | – | 68% | – |
| Fc1ccc(-n2nc(OC3CCNCC3)c3cc(F)ccc32)c(F)c1 [Example 56, 1-(2,4-Difluoro-phenyl)-5-fluoro-3-(piperidin-4-yloxy)-1H-indazole hydrochloride] | – | 9.99 nM | 6.13 nM | – | 11% | – |
| Fc1ccc(-n2nc(OC[C@@H]3CCNC3)c3ccccc32)c(F)c1 [Example 9, (R)-1-(2,4-Difluoro-phenyl)-3-(pyrrolidin-3-ylmethoxy)-1H-indazole hydrochloride] | – | 81.6 nM | 5.63 nM | – | 34.1% | – |
| c1ccc(-n2nc(OC3CCNCC3)c3ccccc32)cc1 [Example 20, 1-Phenyl-3-(piperidin-4-yloxy)-1H-indazole hydrochloride] | – | 122 nM | 20.2 nM | – | 41.1% | – |
| Fc1cccc(-n2nc(OC3CCNCC3)c3ccccc32)c1 [Example 43, 1-(3-Fluoro-phenyl)-3-(piperidin-4-yloxy)-1H-indazole hydrochloride] | – | 138 nM | 17.9 nM | – | 55.4% | – |
| Fc1ccc(F)c(-n2nc(OCC3CCCNC3)c3ccccc32)c1 (racemic) [Example 31, (±)-1-(2,5-Difluoro-phenyl)-3-(piperidin-3-ylmethoxy)-1H-indazole hydrochloride] | – | 134 nM | 6.58 nM | – | 47% | – |
| Cl.Fc1ccccc1-n1nc(OC[C@H]2CCNC2)c2ccccc21 [Example 7, (S)-(−)-1-(2-Fluorophenyl)-3-(pyrrolidin-3-ylmethoxy)-1H-indazole hydrochloride] | – | 54.7 nM | 5.3 nM | – | 12.2% | 71.5 +/− 4.6% |
| Fc1ccc(-n2nc(OC3CCNCC3)c3ccccc32)cc1 [Example 42, 1-(4-Fluoro-phenyl)-3-(piperidin-4-yloxy)-1H-indazole hydrochloride] | – | 81 nM | 25.9 nM | – | 31.7% | – |
| Fc1ccc(F)c(-n2nc(OC[C@@H]3CCNC3)c3c(F)cccc32)c1 [Example 93, (R)-1-(2,5-Difluoro-phenyl)-4-fluoro-3-(pyrrolidin-3-ylmethoxy)-1H-indazole hydrochloride] | – | 224 nM | 16.4 nM | – | – | – |
| Fc1ccc2c(c1)c(OCC1CCCNC1)nn2-c1ccccn1 (stereo not shown) [Example 99, 5-Fluoro-3-(piperidin-3-ylmethoxy)-1-pyridin-2-yl-1H-indazole hydrochloride] | – | 259 nM | 319 nM | – | – | – |
| Fc1cc2c(OC3CCNCC3)nn(-c3ccccc3F)c2cc1F [Example 75, 5,6-Difluoro-1-(2-fluoro-phenyl)-3-(piperidin-4-yloxy)-1H-indazole hydrochloride] | – | 39.8 nM | 36.4 nM | – | – | – |
| c1ccc(-n2nc(OC[C@@H]3CCCNC3)c3ccccc32)cc1 [Example 18, (R)-(+)-1-Phenyl-3-(piperidin-3-ylmethoxy)-1H-indazole hydrochloride] | – | 121 nM | 95.5 nM | – | – | – |
| Clc1cc(Cl)cc(-n2nc(OC3CCNCC3)c3ccccc32)c1 [Example 29, 1-(3,5-Dichloro-phenyl)-3-(piperidin-4-yloxy)-1H-indazole hydrochloride] | – | 342 nM | 4050 nM | – | – | – |
| Fc1ccc(-n2nc(OC3CCNCC3)c3c(F)cccc32)c(F)c1 [Example 88, 1-(2,4-Difluoro-phenyl)-4-fluoro-3-(piperidin-4-yloxy)-1H-indazole hydrochloride] | – | 88.1 nM | 16.3 nM | – | – | – |
| Fc1cccc(F)c1-n1nc(OC[C@H]2CCCNC2)c2c(F)cccc21 [Example 110, (S)-1-(2,6-Difluorophenyl)-4-fluoro-3-(piperidin-3-ylmethoxy)-1H-indazole hydrochloride] | – | 422 nM | 16.3 nM | – | – | – |
| Fc1cccc(-n2nc(OC[C@H]3CCCNC3)c3cc(F)ccc32)c1 [Example 78, (S)-5-Fluoro-1-(3-fluoro-phenyl)-3-(piperidin-3-ylmethoxy)-1H-indazole hydrochloride] | – | 39.9 nM | 10.2 nM | – | – | – |
| Fc1ccc(F)c(-n2nc(OC[C@@H]3CCNC3)c3cc(F)ccc32)c1 [Example 40, (R)-1-(2,5-Difluoro-phenyl)-5-fluoro-3-(pyrrolidin-3-ylmethoxy)-1H-indazole hydrochloride] | – | 30.8 nM | 5.02 nM | – | – | – |
